Assay results taken from publication PMC12586182 (Frontiers in Oncology, 2025).

Assays:
Assay in all cases: Cell viability assay (ATPlite)
Assay type in all cases: cell-based
COLO 829 = details: Homo sapiens; COLO 829 cell line, 72 hours incubation
Method in brief: (§1)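 Cells grew 24 h, then received 9-point √10-fold compound series in duplicate (0.4% DMSO final) for 72 h. ATP content was read by ATPlite luminescence and normalized to vehicle controls as % viability. IC50 came from a four-parameter logistic fit; curves with F-value above 1.5 were invalidated, with IC50 then set at the top concentration.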

FaDu = details: Homo sapiens; FaDu cell line, 72 hours incubation
Method in brief: as §1

DEL = details: Homo sapiens; DEL cell line, 72 hours incubation
Method in brief: as §1

HCC1954 = details: Homo sapiens; HCC1954 cell line, 72 hours incubation
Method in brief: as §1

Hs 852.T = details: Homo sapiens; Hs 852.T cell line, 72 hours incubation
Method in brief: as §1

SW48 = details: Homo sapiens; SW48 cell line, 72 hours incubation
Method in brief: as §1

TOV-21G = details: Homo sapiens, TOV21G; TOV-21G cell line, 72 hours incubation
Method in brief: as §1

Hs 746.T = details: Homo sapiens, Hs746T; Hs 746.T cell line, 72 hours incubation
Method in brief: as §1

A-375 = details: Homo sapiens; A-375 cell line, 72 hours incubation
Method in brief: as §1

K-562 = details: Homo sapiens, K562; K-562 cell line, 72 hours incubation
Method in brief: as §1

A-172 = details: Homo sapiens; A-172 cell line, 72 hours incubation
Method in brief: as §1

U-87MG ATCC = details: Homo sapiens; U-87MG ATCC cell line, 72 hours incubation
Method in brief: as §1

MSTO-211H = details: Homo sapiens; MSTO-211H cell line, 72 hours incubation
Method in brief: as §1

EoL-1 = details: Homo sapiens, EOL1; EoL-1 cell line, 72 hours incubation
Method in brief: as §1

NCI-H2052 = details: Homo sapiens; NCI-H2052 cell line, 72 hours incubation
Method in brief: as §1

HT-1080 = details: Homo sapiens; HT-1080 cell line, 72 hours incubation
Method in brief: as §1

SNU-C2B = details: Homo sapiens; SNU-C2B cell line, 72 hours incubation
Method in brief: as §1

Kasumi-1 = details: Homo sapiens; Kasumi-1 cell line, 72 hours incubation
Method in brief: as §1

NCI-H2172 = details: Homo sapiens; NCI-H2172 cell line, 72 hours incubation
Method in brief: as §1

T24 = details: Homo sapiens, T-24; T24 cell line, 72 hours incubation
Method in brief: as §1

DU145 = details: Homo sapiens, DU-145; DU145 cell line, 72 hours incubation
Method in brief: as §1

HCT 116 = details: Homo sapiens; HCT 116 cell line, 72 hours incubation
Method in brief: as §1

RD-ES = details: Homo sapiens; RD-ES cell line, 72 hours incubation
Method in brief: as §1

SW684 = details: Homo sapiens; SW684 cell line, 72 hours incubation
Method in brief: as §1

LoVo = details: Homo sapiens; LoVo cell line, 72 hours incubation
Method in brief: as §1

MKN45 = details: Homo sapiens, MKN-45; MKN45 cell line, 72 hours incubation
Method in brief: as §1

MV4-11 = details: Homo sapiens; MV4-11 cell line, 72 hours incubation
Method in brief: as §1

Hs 578T = details: Homo sapiens; Hs 578T cell line, 72 hours incubation
Method in brief: as §1

Daoy = details: Homo sapiens; Daoy cell line, 72 hours incubation
Method in brief: as §1

MCF-7 = details: Homo sapiens, MCF7; MCF-7 cell line, 72 hours incubation
Method in brief: as §1

HCC827 = details: Homo sapiens; HCC827 cell line, 72 hours incubation
Method in brief: as §1

Molecule `O=C(c1ccc(Oc2ccccc2)cc1Cl)c1c[nH]c2ncnc(N[C@@H]3CC[C@@H](CO)OC3)c12` [nemtabrutinib] has an IC50 (COLO 829) of 1.54 µM, an IC50 (FaDu) of 1.3 µM and an IC50 (DEL) of 15.4 µM. For the same molecule, the IC50 (HCC1954) was 1.32 µM, the IC50 (Hs 852.T) was 4.02 µM and the IC50 (SW48) was 0.445 µM. It also gave an IC50 (TOV-21G) of 3.78 µM, an IC50 (Hs 746.T) of 11.4 µM and an IC50 (A-375) of 0.404 µM. It also gave an IC50 (K-562) of 2.57 µM, an IC50 (A-172) of 10.6 µM and an IC50 (U-87MG ATCC) of 12 µM. It also gave an IC50 (MSTO-211H) of 3.86 µM, an IC50 (EoL-1) of 0.059 µM and an IC50 (NCI-H2052) of 5.24 µM. It also gave an IC50 (HT-1080) of 4.8 µM, an IC50 (SNU-C2B) of 2.92 µM and an IC50 (Kasumi-1) of 1.41 µM. The IC50 (NCI-H2172) was 0.447 µM, the IC50 (T24) was 2.79 µM and the IC50 (DU145) was 1.64 µM. It also gave an IC50 (HCT 116) of 1.65 µM, an IC50 (RD-ES) of 4.17 µM and an IC50 (SW684) of 11.9 µM. The IC50 (LoVo) was 2.36 µM, the IC50 (MKN45) was 5.26 µM and the IC50 (MV4-11) was 1.35 µM. It also gave an IC50 (Hs 578T) of 11.4 µM, an IC50 (Daoy) of 7.17 µM and an IC50 (MCF-7) of 12.1 µM. It also gave an IC50 (HCC827) of 4.72 µM.
